Test results: the NIST ThermoML archive (doi:10.1016/j.jct.2005.07.009)

Columns and labels:
[1] = xn = mol fraction of the nth substance listed; settings: 298.15 K, 101 kPa, Liquid, Vibrating tube method
[2] = excess molar enthalpy (molar enthalpy of mixing); xn = mol fraction of the nth substance listed; settings: 298.15 K, 101 kPa, Liquid
[3] = 295.15 K; 101.33 kPa; Liquid; Vibrating tube method
[4] = refractive index (Na D-line) (dimensionless); settings: 298.15 K; 101.33 kPa; Liquid; Standard Abbe refractometry

BrCCCCCBr [1,5-dibromopentane] + CCOC(C)=O
Settings	excess molar enthalpy [kJ/mol]	mass density [kg/m3]
[1], x2 = 0.0866	–	1642.62
[1], x2 = 0.1624	–	1595.36
[1], x2 = 0.2251	–	1554.67
[1], x2 = 0.2991	–	1504.62
[1], x2 = 0.3623	–	1460.11
[1], x2 = 0.4225	–	1416.21
[1], x2 = 0.5458	–	1321
[1], x2 = 0.6601	–	1225.85
[1], x2 = 0.765	–	1131.91
[1], x2 = 0.8611	–	1039.57
[1], x2 = 0.9561	–	941.92
[2], x2 = 0.0775	0.108	–
[2], x2 = 0.1619	0.18	–
[2], x2 = 0.2431	0.235	–
[2], x2 = 0.3197	0.267	–
[2], x2 = 0.3909	0.283	–
[2], x2 = 0.4536	0.282	–
[2], x2 = 0.5079	0.275	–
[2], x2 = 0.5103	0.273	–
[2], x2 = 0.5486	0.26	–
[2], x2 = 0.5612	0.259	–
[2], x2 = 0.5934	0.247	–
[2], x2 = 0.6025	0.242	–
[2], x2 = 0.6413	0.222	–
[2], x2 = 0.6919	0.192	–
[2], x2 = 0.7451	0.157	–
[2], x2 = 0.7998	0.119	–
[2], x2 = 0.8546	0.0827	–
[2], x2 = 0.9082	0.05	–
[2], x2 = 0.9563	0.0221	–

BrCCCCBr [1,4-dibromobutane] + CCOC(=O)CC
Settings	excess molar enthalpy [kJ/mol]	mass density [kg/m3]
[1], x2 = 0.1225	–	1707.2
[1], x2 = 0.1797	–	1654.41
[1], x2 = 0.2372	–	1601.35
[1], x2 = 0.299	–	1544.11
[1], x2 = 0.3597	–	1488.19
[1], x2 = 0.479	–	1376.63
[1], x2 = 0.5912	–	1271.5
[1], x2 = 0.6516	–	1214.75
[1], x2 = 0.7649	–	1107.74
[1], x2 = 0.8159	–	1059.5
[1], x2 = 0.8793	–	999.28
[1], x2 = 0.9306	–	950.5
[2], x2 = 0.0536	0.0243	–
[2], x2 = 0.1124	0.0384	–
[2], x2 = 0.1759	0.0493	–
[2], x2 = 0.2389	0.0498	–
[2], x2 = 0.2996	0.0427	–
[2], x2 = 0.357	0.0291	–
[2], x2 = 0.4101	0.0091	–
[2], x2 = 0.4558	-0.0116	–
[2], x2 = 0.4841	-0.0259	–
[2], x2 = 0.4948	-0.0309	–
[2], x2 = 0.5354	-0.0502	–
[2], x2 = 0.5917	-0.0657	–
[2], x2 = 0.653	-0.0725	–
[2], x2 = 0.72	-0.0726	–
[2], x2 = 0.7905	-0.0629	–
[2], x2 = 0.8639	-0.0461	–
[2], x2 = 0.9353	-0.0257	–

BrCCCCCBr [1,5-dibromopentane] + CCOC=O
Settings	excess molar enthalpy [kJ/mol]	mass density [kg/m3]
[1], x2 = 0.089	–	1651.25
[1], x2 = 0.1775	–	1605.2
[1], x2 = 0.2567	–	1560.84
[1], x2 = 0.3412	–	1509.84
[1], x2 = 0.4134	–	1463.17
[1], x2 = 0.5374	–	1374.43
[1], x2 = 0.7024	–	1237.83
[1], x2 = 0.7951	–	1149.61
[1], x2 = 0.8844	–	1054.85
[1], x2 = 0.9227	–	1010.83
[2], x2 = 0.0896	0.276	–
[2], x2 = 0.1866	0.453	–
[2], x2 = 0.279	0.579	–
[2], x2 = 0.3638	0.656	–
[2], x2 = 0.4389	0.696	–
[2], x2 = 0.5051	0.708	–
[2], x2 = 0.5631	0.694	–
[2], x2 = 0.6125	0.662	–
[2], x2 = 0.6372	0.64	–
[2], x2 = 0.6548	0.623	–
[2], x2 = 0.6837	0.596	–
[2], x2 = 0.6928	0.583	–
[2], x2 = 0.7324	0.534	–
[2], x2 = 0.7827	0.452	–
[2], x2 = 0.831	0.368	–
[2], x2 = 0.8797	0.272	–
[2], x2 = 0.9254	0.161	–
[2], x2 = 0.966	0.0568	–

BrCCCBr [1,3-dibromopropane] + CCOC=O
Settings	excess molar enthalpy [kJ/mol]	mass density [kg/m3]
[1], x2 = 0.0717	–	1908.92
[1], x2 = 0.1454	–	1844.11
[1], x2 = 0.2149	–	1781.28
[1], x2 = 0.2791	–	1721.26
[1], x2 = 0.3468	–	1656.48
[1], x2 = 0.4099	–	1594.33
[1], x2 = 0.4685	–	1534.98
[1], x2 = 0.5893	–	1407.8
[1], x2 = 0.6459	–	1345.63
[1], x2 = 0.6988	–	1285.95
[1], x2 = 0.7521	–	1224.47
[1], x2 = 0.8028	–	1164.26
[1], x2 = 0.8548	–	1101.12
[1], x2 = 0.9056	–	1037.67
[2], x2 = 0.0727	0.176	–
[2], x2 = 0.1458	0.302	–
[2], x2 = 0.2104	0.401	–
[2], x2 = 0.2886	0.473	–
[2], x2 = 0.3588	0.514	–
[2], x2 = 0.4253	0.528	–
[2], x2 = 0.4828	0.524	–
[2], x2 = 0.5358	0.51	–
[2], x2 = 0.5812	0.487	–
[2], x2 = 0.6324	0.455	–
[2], x2 = 0.6925	0.404	–
[2], x2 = 0.7529	0.339	–
[2], x2 = 0.8177	0.259	–
[2], x2 = 0.882	0.173	–
[2], x2 = 0.9449	0.0879	–

BrCCCCCCBr [1,6-dibromohexane] + CCCCC(=O)OCC
Settings	excess molar enthalpy [kJ/mol]	mass density [kg/m3]
[1], x2 = 0.0648	–	1555.13
[1], x2 = 0.1774	–	1474.02
[1], x2 = 0.2329	–	1433.91
[1], x2 = 0.2964	–	1387.86
[1], x2 = 0.4137	–	1302.47
[1], x2 = 0.5312	–	1216.59
[1], x2 = 0.5868	–	1175.74
[1], x2 = 0.6906	–	1099.24
[1], x2 = 0.7612	–	1047.08
[1], x2 = 0.819	–	1004.24
[1], x2 = 0.8814	–	957.89
[1], x2 = 0.934	–	918.67
[2], x2 = 0.0622	0.0304	–
[2], x2 = 0.1322	0.0461	–
[2], x2 = 0.2027	0.0576	–
[2], x2 = 0.2702	0.0628	–
[2], x2 = 0.3359	0.0609	–
[2], x2 = 0.3944	0.052	–
[2], x2 = 0.4464	0.0391	–
[2], x2 = 0.4901	0.0237	–
[2], x2 = 0.5274	0.0076	–
[2], x2 = 0.5624	-0.0089	–
[2], x2 = 0.6245	-0.0257	–
[2], x2 = 0.6853	-0.0321	–
[2], x2 = 0.7481	-0.0328	–
[2], x2 = 0.8143	-0.0299	–
[2], x2 = 0.8791	-0.0229	–
[2], x2 = 0.947	-0.0137	–

BrCCCCCCBr [1,6-dibromohexane]
Settings	mass density [kg/m3]	refractive index
[3]	1601.8	–
[4]	–	1.506
